Activity calls are given as the source filed them. The rule behind the calls is not given here.
What was measured:
[1] = Cytotoxicity against human normal fibroblast after 1 day by MTT assay; format: cell-based; details: 24 h
HaCaT [2] = assay: Decrease in collagenase expression in Coll-CAT gene transfected human HaCaT cells co-transfected with c-Jun and retinoic acid receptor relative to control; format: functional
[3] = Thermal stability at 4 degC after 4 weeks; format: physicochemical; details: 672 h
Fibroblast [4] = assay: Induction of CRABP 2 mRNA expression in human normal fibroblast at 1 uM by […] relative to control; format: functional
[5] = Photostability after UV irradiation; format: physicochemical
[6] = Thermal stability at 40 degC after 4 weeks; format: physicochemical; details: 672 h
HaCaT [7] = assay: Decrease in collagenase expression in Coll-CAT gene transfected human HaCaT cells co-transfected with c-Jun relative to control; format: functional
Fibroblast [8] = assay: Induction of CRABP 2 mRNA expression in human normal fibroblast at 10 uM by […] relative to control; format: functional
[9] = target: T1, Retinoic acid receptor alpha (Homo sapiens) (UniProt P10276); assay: Increase in transcriptional activity of RARalpha receptor epressed in human HaCaT cells co-transfected with DR5-tk-CAT reporter plasmid assessed as beta-galactosidase activity by CAT-ELISA; format: cell-based
T1 sequence (whole entry): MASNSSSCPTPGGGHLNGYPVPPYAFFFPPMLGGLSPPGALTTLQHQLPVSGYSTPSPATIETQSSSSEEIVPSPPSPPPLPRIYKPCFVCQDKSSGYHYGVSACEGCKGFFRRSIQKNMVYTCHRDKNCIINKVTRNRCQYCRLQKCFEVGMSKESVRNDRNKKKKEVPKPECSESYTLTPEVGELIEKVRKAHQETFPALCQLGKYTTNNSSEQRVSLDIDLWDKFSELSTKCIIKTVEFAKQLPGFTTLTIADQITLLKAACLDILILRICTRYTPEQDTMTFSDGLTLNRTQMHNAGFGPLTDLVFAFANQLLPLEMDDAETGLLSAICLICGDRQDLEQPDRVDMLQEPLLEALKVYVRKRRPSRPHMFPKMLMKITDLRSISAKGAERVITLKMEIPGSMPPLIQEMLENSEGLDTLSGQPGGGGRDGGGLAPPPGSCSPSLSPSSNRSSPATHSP

Fibroblast [10] = assay: Induction of collagen biosynthesis in human normal fibroblast; format: functional, cell-based
[11] = target: Transcription factor Jun (Homo sapiens) (UniProt P05412); assay: Inhibition of AP1 expressed in human HaCaT cells transfected with Coll-CAT reporter gene assessed as collagenase expression by CAT-ELISA; format: cell-based
[12] = Stability in human fibroblasts assessed as retention time after 2 days; format: ADME, cell-based; details: fibroblast, 48 h

Transcription factor Jun (Homo sapiens), sequence (P05412 whole entry): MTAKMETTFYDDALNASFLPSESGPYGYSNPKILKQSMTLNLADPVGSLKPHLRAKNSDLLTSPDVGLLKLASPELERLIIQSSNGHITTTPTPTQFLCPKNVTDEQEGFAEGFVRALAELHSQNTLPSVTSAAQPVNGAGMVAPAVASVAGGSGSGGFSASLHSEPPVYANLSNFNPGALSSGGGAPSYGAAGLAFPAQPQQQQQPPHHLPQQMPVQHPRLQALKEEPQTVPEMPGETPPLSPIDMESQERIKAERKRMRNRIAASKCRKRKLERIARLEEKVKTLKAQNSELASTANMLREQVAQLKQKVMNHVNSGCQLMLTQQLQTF

Row | Stability [3] | Activity [5] | Activity [6] | Activity [9] | Stability [5] | Activity [11] | Activity [12] [min] | Compound | IC50 [1] [µM] | inhibition (INH) (HaCaT [2]) [%] | Activity (Fibroblast [4]) | inhibition (INH) (HaCaT [7]) [%] | Activity (Fibroblast [8]) | Activity (Fibroblast [10])
1 | Stable | Not Active | Not Active | Active |  |  |  | CC1=C(/C=C/C(C)=C/C=C/C(C)=C/CO)C(C)(C)CCC1 [RETINOL] | 25 | 33 | 1.4 | 7.3 | 1.44 | 
2 | Stable |  |  | Active | Stable | Active | 18.94 | CC1=C(/C=C/C(C)=C/C=C/C(C)=C/COC(=O)/C=C(C)/C=C/C=C(C)/C=C/C2=C(C)CCCC2(C)C)C(C)(C)CCC1 [RETINYLRETINOATE] | 40 | 52 | 1.56 | 6.7 | 1.75 | Active
3 |  |  |  |  |  |  |  | CC1=C(/C=C/C(C)=C/C=C/C(C)=C/C(=O)O)C(C)(C)CCC1 [TRETINOIN] |  | 64 | 1.84 | 5.4 | 2.05 | 
4 |  |  |  |  |  |  |  | CCCCCCCCCCCCCCCC(=O)OC/C=C(C)/C=C/C=C(C)/C=C/C1=C(C)CCCC1(C)C [VITAMIN A PALMITATE] |  |  | 1.2 |  | 1.4 | 

Reference: ChEMBL document CHEMBL1150766, “Synthesis and in vitro biological activity of retinyl retinoate, a novel hybrid retinoid derivative” (Bioorg Med Chem, 2008)
